Laboratory results from the kinase profiling compilation of Christmann-Franck et al. (2016).

Key:
Assay in all cases: radiometric filter-binding kinase assay, Kinase HotSpot
Conditions in all cases: compound 0.5 µM; ATP 10 µM
MERTK (human) = MERTK (human) (UniProt Q12866)
PHKG2 (human) = PHKG2 (human) (UniProt P15735)
RET (human) = RET (human) (UniProt P07949)
RAF1 (human) = RAF1 (human) (UniProt P04049)
FES (human) = FES (human) (UniProt P07332)
MAP3K7 TAB1 (human) = MAP3K7 TAB1 (human) (UniProt O43318+Q15750)
EPHA4 (human) = EPHA4 (human) (UniProt P54764)
FGR (human) = FGR (human) (UniProt P09769)
TAOK1 (human) = TAOK1 (human) (UniProt Q7L7X3)
STK11 (human) = STK11 (human) (UniProt Q15831)
PDPK1 (human) = PDPK1 (human) (UniProt O15530)
WEE1 (human) = WEE1 (human) (UniProt P30291)
VRK1 (human) = VRK1 (human) (UniProt Q99986)
CSNK1D (human) = CSNK1D (human) (UniProt P48730)
DAPK2 (human) = DAPK2 (human) (UniProt Q9UIK4)
KDR (human) = KDR (human) (UniProt P35968)
TAOK2 (human) = TAOK2 (human) (UniProt Q9UL54)
CDK5 CDK5R1 p25 (human) = CDK5 CDK5R1 p25 (human) (UniProt Q00535+Q15078)
AKT2 (human) = AKT2 (human) (UniProt P31751)
RPS6KB1 (human) = RPS6KB1 (human) (UniProt P23443)
ERBB2 (human) = ERBB2 (human) (UniProt P04626)
MAP3K2 (human) = MAP3K2 (human) (UniProt Q9Y2U5)
PAK3 (human) = PAK3 (human) (UniProt O75914)
CDK1 CCNA2 (human) = CDK1 CCNA2 (human) (UniProt P06493+P20248)
CLK3 (human) = CLK3 (human) (UniProt P49761)
AURKC (human) = AURKC (human) (UniProt Q9UQB9)
TNK2 (human) = TNK2 (human) (UniProt Q07912)
PKN2 (human) = PKN2 (human) (UniProt Q16513)
CDK6 CCND1 (human) = CDK6 CCND1 (human) (UniProt Q00534+P24385)
MAPK14 (human) = MAPK14 (human) (UniProt Q16539)
DDR2 (human) = DDR2 (human) (UniProt Q16832)
ACVR1B (human) = ACVR1B (human) (UniProt P36896)
PBK (human) = PBK (human) (UniProt Q96KB5)
KIT (human) = KIT (human) (UniProt P10721)
ERBB4 (human) = ERBB4 (human) (UniProt Q15303)
TEC (human) = TEC (human) (UniProt P42680)
CDK4 CCND3 (human) = CDK4 CCND3 (human) (UniProt P30281+P11802)
MAPK1 (human) = MAPK1 (human) (UniProt P28482)
NEK11 (human) = NEK11 (human) (UniProt Q8NG66)
RPS6KA5 KD2 (human) = RPS6KA5 KD2 (human) (UniProt O75582)
TSSK1B (human) = TSSK1B (human) (UniProt Q9BXA7)

CSNK1D (human), sequence (P48730 whole entry, looked up): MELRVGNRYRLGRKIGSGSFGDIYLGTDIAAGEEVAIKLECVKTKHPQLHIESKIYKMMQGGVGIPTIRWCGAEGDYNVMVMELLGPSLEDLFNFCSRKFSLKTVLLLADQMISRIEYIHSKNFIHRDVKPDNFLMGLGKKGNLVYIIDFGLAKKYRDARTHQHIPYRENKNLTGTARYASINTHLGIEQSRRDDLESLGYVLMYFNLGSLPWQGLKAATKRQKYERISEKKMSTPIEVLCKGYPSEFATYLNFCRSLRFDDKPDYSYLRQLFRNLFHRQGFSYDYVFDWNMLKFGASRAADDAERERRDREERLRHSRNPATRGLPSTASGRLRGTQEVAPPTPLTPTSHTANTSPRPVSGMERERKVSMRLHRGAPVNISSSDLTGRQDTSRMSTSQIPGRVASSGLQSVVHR
MAPK14 (human), sequence (Q16539 whole entry, looked up): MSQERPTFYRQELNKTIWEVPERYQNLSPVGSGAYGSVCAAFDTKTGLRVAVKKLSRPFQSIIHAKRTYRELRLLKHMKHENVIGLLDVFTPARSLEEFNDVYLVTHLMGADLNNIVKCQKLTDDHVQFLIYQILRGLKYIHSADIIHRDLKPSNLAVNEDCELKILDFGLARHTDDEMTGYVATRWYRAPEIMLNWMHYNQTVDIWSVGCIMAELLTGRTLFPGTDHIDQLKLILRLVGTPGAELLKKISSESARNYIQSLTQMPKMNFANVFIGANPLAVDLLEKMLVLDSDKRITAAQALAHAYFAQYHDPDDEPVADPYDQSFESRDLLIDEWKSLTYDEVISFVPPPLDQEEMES
VRK1 (human), sequence (Q99986 whole entry, looked up): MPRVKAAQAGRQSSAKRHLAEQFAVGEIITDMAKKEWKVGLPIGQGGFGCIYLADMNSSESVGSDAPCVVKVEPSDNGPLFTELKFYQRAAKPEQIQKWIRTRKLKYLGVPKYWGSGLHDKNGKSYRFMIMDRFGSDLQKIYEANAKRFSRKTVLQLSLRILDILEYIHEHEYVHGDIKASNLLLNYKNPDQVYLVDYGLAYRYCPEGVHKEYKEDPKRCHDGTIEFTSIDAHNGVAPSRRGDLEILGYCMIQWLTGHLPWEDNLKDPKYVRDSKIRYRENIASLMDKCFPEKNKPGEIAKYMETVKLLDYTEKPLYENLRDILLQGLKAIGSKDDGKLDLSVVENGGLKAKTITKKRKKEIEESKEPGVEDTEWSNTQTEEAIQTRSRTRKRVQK
AURKC (human), sequence (Q9UQB9 whole entry, looked up): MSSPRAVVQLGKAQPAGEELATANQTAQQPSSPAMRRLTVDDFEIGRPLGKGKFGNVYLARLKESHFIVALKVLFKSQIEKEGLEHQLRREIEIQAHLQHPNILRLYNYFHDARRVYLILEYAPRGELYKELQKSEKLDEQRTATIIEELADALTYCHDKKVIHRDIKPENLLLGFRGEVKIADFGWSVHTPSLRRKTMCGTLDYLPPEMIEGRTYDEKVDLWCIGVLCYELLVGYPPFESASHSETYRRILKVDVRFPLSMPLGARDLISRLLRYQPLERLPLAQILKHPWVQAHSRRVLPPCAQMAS
MAP3K2 (human), sequence (Q9Y2U5 whole entry, looked up): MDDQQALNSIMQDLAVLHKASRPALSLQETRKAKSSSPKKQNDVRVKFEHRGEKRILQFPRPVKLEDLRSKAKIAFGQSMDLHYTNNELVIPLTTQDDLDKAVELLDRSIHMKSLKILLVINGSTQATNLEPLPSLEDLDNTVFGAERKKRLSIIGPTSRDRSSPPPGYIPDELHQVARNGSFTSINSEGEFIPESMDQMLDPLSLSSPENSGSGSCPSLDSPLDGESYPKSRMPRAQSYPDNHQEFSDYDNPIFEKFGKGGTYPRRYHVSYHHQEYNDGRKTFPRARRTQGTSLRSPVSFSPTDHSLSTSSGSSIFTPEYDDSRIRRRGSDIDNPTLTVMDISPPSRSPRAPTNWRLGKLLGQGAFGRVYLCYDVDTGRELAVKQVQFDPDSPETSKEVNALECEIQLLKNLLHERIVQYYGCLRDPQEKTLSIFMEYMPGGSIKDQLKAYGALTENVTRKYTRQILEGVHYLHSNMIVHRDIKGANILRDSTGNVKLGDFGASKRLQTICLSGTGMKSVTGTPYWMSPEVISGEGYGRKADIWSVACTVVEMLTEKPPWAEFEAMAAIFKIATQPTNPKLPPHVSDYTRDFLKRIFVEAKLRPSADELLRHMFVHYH
ACVR1B (human), sequence (P36896 whole entry, looked up): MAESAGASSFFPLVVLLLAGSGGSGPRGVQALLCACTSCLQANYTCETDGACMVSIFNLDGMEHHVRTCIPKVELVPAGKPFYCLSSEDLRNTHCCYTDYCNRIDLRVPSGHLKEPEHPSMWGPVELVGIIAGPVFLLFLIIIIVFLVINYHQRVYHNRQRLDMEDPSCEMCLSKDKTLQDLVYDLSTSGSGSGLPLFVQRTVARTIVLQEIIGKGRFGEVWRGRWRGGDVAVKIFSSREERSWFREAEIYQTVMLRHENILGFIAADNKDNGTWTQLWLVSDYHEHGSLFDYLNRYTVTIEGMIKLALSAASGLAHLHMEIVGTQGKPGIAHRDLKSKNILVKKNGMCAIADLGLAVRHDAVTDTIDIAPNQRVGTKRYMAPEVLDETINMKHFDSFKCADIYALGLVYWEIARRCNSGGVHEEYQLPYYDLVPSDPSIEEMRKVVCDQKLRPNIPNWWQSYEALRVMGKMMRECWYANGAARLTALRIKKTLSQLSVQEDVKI
FGR (human), sequence (P09769 whole entry, looked up): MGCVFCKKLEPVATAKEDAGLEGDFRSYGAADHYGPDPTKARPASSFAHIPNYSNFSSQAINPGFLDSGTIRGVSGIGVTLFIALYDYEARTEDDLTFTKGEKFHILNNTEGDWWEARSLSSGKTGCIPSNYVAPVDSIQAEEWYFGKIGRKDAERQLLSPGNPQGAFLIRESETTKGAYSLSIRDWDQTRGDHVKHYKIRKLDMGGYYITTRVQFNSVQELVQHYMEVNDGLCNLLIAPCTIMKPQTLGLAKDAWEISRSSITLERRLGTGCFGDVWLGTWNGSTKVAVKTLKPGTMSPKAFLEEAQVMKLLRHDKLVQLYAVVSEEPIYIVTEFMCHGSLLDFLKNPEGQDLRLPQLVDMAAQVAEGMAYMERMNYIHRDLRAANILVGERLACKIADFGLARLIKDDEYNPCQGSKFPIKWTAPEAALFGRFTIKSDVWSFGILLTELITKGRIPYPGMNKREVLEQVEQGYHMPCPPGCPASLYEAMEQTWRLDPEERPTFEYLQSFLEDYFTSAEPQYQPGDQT
AKT2 (human), sequence (P31751 whole entry, looked up): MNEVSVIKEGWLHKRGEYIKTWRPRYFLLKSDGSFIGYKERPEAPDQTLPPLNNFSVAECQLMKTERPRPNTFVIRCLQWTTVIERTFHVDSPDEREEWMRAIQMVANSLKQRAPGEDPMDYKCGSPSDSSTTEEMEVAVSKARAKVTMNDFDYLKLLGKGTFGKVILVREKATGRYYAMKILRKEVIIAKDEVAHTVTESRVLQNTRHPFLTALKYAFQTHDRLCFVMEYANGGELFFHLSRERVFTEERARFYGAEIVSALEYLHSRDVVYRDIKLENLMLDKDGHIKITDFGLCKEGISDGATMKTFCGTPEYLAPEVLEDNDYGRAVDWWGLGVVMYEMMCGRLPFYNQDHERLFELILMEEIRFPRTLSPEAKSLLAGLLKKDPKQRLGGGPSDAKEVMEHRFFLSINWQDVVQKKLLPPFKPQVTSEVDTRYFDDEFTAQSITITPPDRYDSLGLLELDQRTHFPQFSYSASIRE
TNK2 (human), sequence (Q07912 whole entry, looked up): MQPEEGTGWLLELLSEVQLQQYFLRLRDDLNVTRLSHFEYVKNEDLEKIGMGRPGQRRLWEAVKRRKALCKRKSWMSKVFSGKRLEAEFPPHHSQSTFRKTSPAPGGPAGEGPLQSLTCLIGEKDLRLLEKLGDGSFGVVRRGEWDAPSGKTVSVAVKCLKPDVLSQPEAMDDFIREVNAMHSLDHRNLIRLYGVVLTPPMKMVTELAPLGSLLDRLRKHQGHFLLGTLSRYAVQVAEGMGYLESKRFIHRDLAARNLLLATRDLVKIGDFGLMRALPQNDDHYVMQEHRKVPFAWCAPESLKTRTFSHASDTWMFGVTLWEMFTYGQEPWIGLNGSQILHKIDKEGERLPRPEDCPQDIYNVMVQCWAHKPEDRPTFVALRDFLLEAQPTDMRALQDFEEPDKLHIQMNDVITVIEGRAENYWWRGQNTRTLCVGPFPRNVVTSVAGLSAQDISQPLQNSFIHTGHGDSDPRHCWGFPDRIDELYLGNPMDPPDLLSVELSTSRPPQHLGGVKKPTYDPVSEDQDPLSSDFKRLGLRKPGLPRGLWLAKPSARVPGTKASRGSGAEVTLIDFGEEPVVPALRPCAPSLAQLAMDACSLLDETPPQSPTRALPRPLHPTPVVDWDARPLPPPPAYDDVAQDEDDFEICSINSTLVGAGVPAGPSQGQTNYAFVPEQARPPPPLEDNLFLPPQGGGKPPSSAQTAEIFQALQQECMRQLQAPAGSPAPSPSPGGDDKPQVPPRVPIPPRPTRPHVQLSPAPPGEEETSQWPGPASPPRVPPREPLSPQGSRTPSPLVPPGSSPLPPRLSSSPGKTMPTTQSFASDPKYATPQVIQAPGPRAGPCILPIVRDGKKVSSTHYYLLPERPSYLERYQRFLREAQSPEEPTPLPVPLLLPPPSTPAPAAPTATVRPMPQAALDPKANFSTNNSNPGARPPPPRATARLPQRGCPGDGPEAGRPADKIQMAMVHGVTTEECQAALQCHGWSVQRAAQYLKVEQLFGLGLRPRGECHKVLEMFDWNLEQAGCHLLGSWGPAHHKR
PBK (human), sequence (Q96KB5 whole entry, looked up): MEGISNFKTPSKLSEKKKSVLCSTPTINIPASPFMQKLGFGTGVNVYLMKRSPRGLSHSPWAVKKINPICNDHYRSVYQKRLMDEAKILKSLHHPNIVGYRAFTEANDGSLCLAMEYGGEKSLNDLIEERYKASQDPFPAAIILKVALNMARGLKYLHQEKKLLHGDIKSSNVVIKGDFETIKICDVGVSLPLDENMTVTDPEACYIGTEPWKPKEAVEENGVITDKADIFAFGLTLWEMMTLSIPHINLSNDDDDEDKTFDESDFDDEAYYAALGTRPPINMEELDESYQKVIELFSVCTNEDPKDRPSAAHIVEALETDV

**Q.** What does the source list for COc1ccc2c(c[n+](C)c3c4cc5c(cc4ccc23)OCO5)c1OC?
**A.** residual activity (MERTK (human)): 90.8%; residual activity (PHKG2 (human)): 94.8%; residual activity (RET (human)): 97%; residual activity (RAF1 (human)): 96.7%; residual activity (FES (human)): 108%; residual activity (MAP3K7 TAB1 (human)): 100%; residual activity (EPHA4 (human)): 103%; residual activity (FGR (human)): 91.3%; residual activity (TAOK1 (human)): 105%; residual activity (STK11 (human)): 82.1%; residual activity (PDPK1 (human)): 98.2%; residual activity (WEE1 (human)): 108%; residual activity (VRK1 (human)): 106%; residual activity (CSNK1D (human)): 92.9%; residual activity (DAPK2 (human)): 93.9%; residual activity (KDR (human)): 104%; residual activity (TAOK2 (human)): 95%; residual activity (CDK5 CDK5R1 p25 (human)): 86.2%; residual activity (AKT2 (human)): 93.6%; residual activity (RPS6KB1 (human)): 99.8%; residual activity (ERBB2 (human)): 101%; residual activity (MAP3K2 (human)): 99.8%; residual activity (PAK3 (human)): 96.6%; residual activity (CDK1 CCNA2 (human)): 89.7%; residual activity (CLK3 (human)): 95.2%; residual activity (AURKC (human)): 93.5%; residual activity (TNK2 (human)): 101%; residual activity (PKN2 (human)): 93.3%; residual activity (CDK6 CCND1 (human)): 103%; residual activity (MAPK14 (human)): 94.1%; residual activity (DDR2 (human)): 96.1%; residual activity (ACVR1B (human)): 110%; residual activity (PBK (human)): 102%; residual activity (KIT (human)): 68.8%; residual activity (ERBB4 (human)): 99.9%; residual activity (TEC (human)): 116%; residual activity (CDK4 CCND3 (human)): 98.8%; residual activity (MAPK1 (human)): 101%; residual activity (NEK11 (human)): 106%; residual activity (RPS6KA5 KD2 (human)): 83.3%; residual activity (TSSK1B (human)): 97.3%

**Q.** Which results are given for Cc1ccc(S(=O)(=O)/C=C/C#N)cc1?
**A.** residual activity (MERTK (human)): 96.4%; residual activity (PHKG2 (human)): 109%; residual activity (RET (human)): 102%; residual activity (RAF1 (human)): 104%; residual activity (FES (human)): 100%; residual activity (MAP3K7 TAB1 (human)): 99.9%; residual activity (EPHA4 (human)): 86.1%; residual activity (FGR (human)): 100%; residual activity (TAOK1 (human)): 96.5%; residual activity (STK11 (human)): 91.1%; residual activity (PDPK1 (human)): 102%; residual activity (WEE1 (human)): 96.4%; residual activity (VRK1 (human)): 105%; residual activity (CSNK1D (human)): 103%; residual activity (DAPK2 (human)): 100%; residual activity (KDR (human)): 94.7%; residual activity (TAOK2 (human)): 89.7%; residual activity (CDK5 CDK5R1 p25 (human)): 86.8%; residual activity (AKT2 (human)): 94.9%; residual activity (RPS6KB1 (human)): 105%; residual activity (ERBB2 (human)): 94.2%; residual activity (MAP3K2 (human)): 91.8%; residual activity (PAK3 (human)): 105%; residual activity (CDK1 CCNA2 (human)): 96.7%; residual activity (CLK3 (human)): 106%; residual activity (AURKC (human)): 97.1%; residual activity (TNK2 (human)): 94.9%; residual activity (PKN2 (human)): 81.5%; residual activity (CDK6 CCND1 (human)): 91.4%; residual activity (MAPK14 (human)): 97.4%; residual activity (DDR2 (human)): 96.4%; residual activity (ACVR1B (human)): 107%; residual activity (PBK (human)): 83.2%; residual activity (KIT (human)): 102%; residual activity (ERBB4 (human)): 99.7%; residual activity (TEC (human)): 144%; residual activity (CDK4 CCND3 (human)): 100%; residual activity (MAPK1 (human)): 100%; residual activity (NEK11 (human)): 95.8%; residual activity (RPS6KA5 KD2 (human)): 109%; residual activity (TSSK1B (human)): 97.4%

**Q.** Nc1cccc(-c2cc3c(Oc4cccc(O)c4)ncnc3[nH]2)c1 was tested. Which residual activity (MERTK (human)) did it give?
**A.** 63.8%

**Q.** What about the residual activity (PHKG2 (human)) of the same molecule?
**A.** 109%

**Q.** What about the residual activity (RET (human)) of the same molecule?
**A.** -0.229%

**Q.** What about the residual activity (RAF1 (human)) of the same molecule?
**A.** 85.9%

**Q.** And the residual activity (FES (human))?
**A.** 73.8%

**Q.** What about the residual activity (MAP3K7 TAB1 (human)) of the same molecule?
**A.** 63%

**Q.** And the residual activity (EPHA4 (human))?
**A.** 48.3%

**Q.** And the residual activity (FGR (human))?
**A.** 5.28%

**Q.** And the residual activity (TAOK1 (human))?
**A.** 142%

**Q.** And the residual activity (STK11 (human))?
**A.** 12.4%

**Q.** What about the residual activity (PDPK1 (human)) of the same molecule?
**A.** 86.8%

**Q.** What about the residual activity (WEE1 (human)) of the same molecule?
**A.** 85.5%

**Q.** What about the residual activity (VRK1 (human)) of the same molecule?
**A.** 81.6%

**Q.** And the residual activity (CSNK1D (human))?
**A.** 96.8%

**Q.** What about the residual activity (DAPK2 (human)) of the same molecule?
**A.** 106%

**Q.** What about the residual activity (KDR (human)) of the same molecule?
**A.** 6.7%

**Q.** What about the residual activity (TAOK2 (human)) of the same molecule?
**A.** 81.4%

**Q.** And the residual activity (CDK5 CDK5R1 p25 (human))?
**A.** 114%

**Q.** And the residual activity (AKT2 (human))?
**A.** 109%

**Q.** And the residual activity (RPS6KB1 (human))?
**A.** 95.3%

**Q.** And the residual activity (ERBB2 (human))?
**A.** 76.6%

**Q.** And the residual activity (MAP3K2 (human))?
**A.** 86.9%

**Q.** What about the residual activity (PAK3 (human)) of the same molecule?
**A.** 79.8%

**Q.** What about the residual activity (CDK1 CCNA2 (human)) of the same molecule?
**A.** 99.3%

**Q.** And the residual activity (CLK3 (human))?
**A.** 74%

**Q.** And the residual activity (AURKC (human))?
**A.** 77.7%

**Q.** And the residual activity (TNK2 (human))?
**A.** 19.6%

**Q.** What about the residual activity (PKN2 (human)) of the same molecule?
**A.** 72%

**Q.** What about the residual activity (CDK6 CCND1 (human)) of the same molecule?
**A.** 82.2%

**Q.** And the residual activity (MAPK14 (human))?
**A.** 98.1%

**Q.** What about the residual activity (DDR2 (human)) of the same molecule?
**A.** 29.3%

**Q.** And the residual activity (ACVR1B (human))?
**A.** 122%

**Q.** And the residual activity (PBK (human))?
**A.** 93.9%

**Q.** What about the residual activity (KIT (human)) of the same molecule?
**A.** 35.1%

**Q.** What about the residual activity (ERBB4 (human)) of the same molecule?
**A.** 75.8%

**Q.** And the residual activity (TEC (human))?
**A.** 108%

**Q.** What about the residual activity (CDK4 CCND3 (human)) of the same molecule?
**A.** 92.8%

**Q.** What about the residual activity (MAPK1 (human)) of the same molecule?
**A.** 114%

**Q.** What about the residual activity (NEK11 (human)) of the same molecule?
**A.** 89.6%

**Q.** What about the residual activity (RPS6KA5 KD2 (human)) of the same molecule?
**A.** 83.6%

**Q.** What about the residual activity (TSSK1B (human)) of the same molecule?
**A.** 91.1%
